These results are taken from patent US9926275B2 (priority 2013, dated 2018).

Where two headings read alike, the source gives them in different places.

Test [1] has as its target T1, CB1 receptor (Homo sapiens, UniProt P21554). The test is described as follows: β-arrestin recruitment in CNR1 PathHunter cell line, allosteric modulation of CP55,940 response. Conditions: for Emax: read-out: β-arrestin activity EMax (%). It counts as cell-based. How it is done: (§1) For allosteric determination, cells were preincubated with compound followed by agonist challenge at the EC20 concentration of the agonist. 5 μL of 4× compound was added to cells and incubated at 37° C. for 30 minutes. 5 μL of 4× EC20 agonist was added to cells and incubated at 37° C. for 30 minutes.
(§2) Data Analysis: Dose curves were plotted using GraphPad Prism or Activity Base. The percentage activity is calculated using the following formula: % Activity=100%×(1−(mean RLU of test sample−mean RLU of MAX control)/(mean RLU of vehicle control [EC20 for PAM]−mean RLU of MAXcontrol).
(§3) Agonist (CP55,940) dose curves were performed for the CNR1 PathHunter and cAMP Hunter cell lines. […] The cAMP assay was performed in the presence of 20 μM forskolin (EC80).
(§4) In Vitro Evaluation: The in vitro evaluation of the covalent allosteric modulators was performed using as described previously.
(In general: Activated receptors often draw arrestin, which recruitment assays turn into a signal.)

Test [2] concerns the target T1, CB1 receptor. The test is described as follows: DiscoveRx HitHunter cAMP XS+ assay in cAMP Hunter cell line, allosteric modulation of CP55,940 response. The format is cell-based. As to conditions: for Emax: read-out: cAMP activity ECMax (%). How it is done:
Once it was established that the cells were healthy and growing normally, cells were passaged from flasks using cell dissociation reagent buffer and seeded into white walled clear bottom 384-well microplates for compound profiling. For profiling, cells were seeded at a density of 10000 cells per well in a total volume of 20 μL and were allowed to adhere and recover overnight prior to compound addition. Cells were treated the following day using the protocols shown below. cAMP modulation was determined using the DiscoveRx HitHunter cAMP XS+ assay.
Media was aspirated from cells and replaced with 10 μL 1:1 HBSS/Hepes: cAMP XS+ Ab reagent. Agonist (CP55,940) dose curves were performed to determine the EC20 value for the testing with the compounds of the present technology. 5 μL of 4× agonist was added to each well with an equal concentration of vehicle present. EC20 agonist concentration was determined directly from agonist dose curve.
as §1
Signal Detection: After appropriate compound incubation, assay signal was generated through incubation with 20 μL cAMP XS+ED/CL lysis cocktail for one hour followed by incubation with 20 μL cAMP XS+EA reagent for three hours at room temperature. Microplates were read following signal generation with a PerkinElmer Envision™ instrument for chemiluminescent signal detection.
as §2, §3, §4

The mark [3] stands for this setting: Table 1, CP55,940 as agonist, read-out: β-arrestin EC50.
The mark [4] stands for this setting: Table 1, preincubation with compound, then CP55,940 challenge, 20 μM forskolin.
[5] abbreviates: Table 1, preincubation with compound, then CP55,940 challenge, 20 μM forskolin, read-out: cAMP EC50.
Setting [6] is: Table 2, covalent allosteric modulators, read-out: β-arrestin activity EC50 (nm).
Setting [7] is: Table 2, covalent allosteric modulators.
Setting [8] is: Table 2, covalent allosteric modulators, read-out: cAMP activity EC50 (nm).

T1 sequence (P21554 whole entry): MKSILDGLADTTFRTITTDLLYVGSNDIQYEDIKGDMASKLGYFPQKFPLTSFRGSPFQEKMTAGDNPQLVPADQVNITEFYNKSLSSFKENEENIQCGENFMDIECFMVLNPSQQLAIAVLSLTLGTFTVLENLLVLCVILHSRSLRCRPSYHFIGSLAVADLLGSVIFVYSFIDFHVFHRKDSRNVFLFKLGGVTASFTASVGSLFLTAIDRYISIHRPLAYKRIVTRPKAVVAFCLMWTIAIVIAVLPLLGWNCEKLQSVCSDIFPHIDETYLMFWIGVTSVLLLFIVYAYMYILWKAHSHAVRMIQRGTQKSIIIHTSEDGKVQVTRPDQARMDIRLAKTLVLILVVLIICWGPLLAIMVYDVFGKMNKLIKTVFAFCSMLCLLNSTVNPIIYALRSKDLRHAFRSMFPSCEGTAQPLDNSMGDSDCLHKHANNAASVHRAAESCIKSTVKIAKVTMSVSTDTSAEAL

The term EC50 denotes the concentration giving half of the maximal effect. Consider `O=C(Nc1cccc(-c2cccc(N3CCCC3)n2)c1)Nc1ccc(Cl)c(I)c1` [Compound 19b, 1-(4-Chloro-3-iodophenyl)-3-(3-(6-(pyrrolidin-1-yl)pyridin-2-yl)phenyl)urea], for which the β-arrestin % inhibition in test [1] (Table 1, CP55,940 as agonist) is listed as 120%. Further, the EC50 in test [1] (setting [3]) is 126 nM; in test [2] (setting [5]), above 10000 nM. In test [2] (setting [4]), the cAMP % inhibition was 30%.
On the same counts, the results for `O=C(Nc1cccc(Cl)c1)Nc1cccc(-c2cccc(N3CCCC3)n2)c1` [Compound 10c, 1-(3-Chlorophenyl)-3-(3-(6-(pyrrolidin-1-yl)pyridin-2-yl)phenyl)urea] are 128%, 260 nM, 782 nM and 111%.
The matching figures for `Clc1ccc(Nc2nnc(-c3cccc(-c4cccc(N5CCCC5)n4)c3)o2)cc1` [Compound 42, N-(4-Chlorophenyl)-5-(3-(6-(pyrrolidin-1-yl)pyridin-2-yl)phenyl)-1,3,4-oxadiazol-2-amine]: 31%, 5850 nM, above 10000 nM and 43%.
The matching figures for `N#C/N=C(/Nc1ccc(Cl)cc1)Nc1cccc(-c2cccc(N3CCCC3)n2)c1` [Compound 35, (Z)-1-(4-Chlorophenyl)-2-cyano-3-(3-(6-(pyrrolidin-1-yl)pyridin-2-yl)phenyl)guanidine]: 69%, 3060 nM, 3340 nM and 29%.
For `Cc1cc(Cl)ccc1OC(=O)Nc1cccc(-c2cccc(N3CCCC3)n2)c1` [Compound 13c, 4-Chloro-2-methylphenyl (3-(6-(pyrrolidin-1-yl)pyridin-2-yl)phenyl)carbamate], the β-arrestin % inhibition in test [1] (Table 1, CP55,940 as agonist) amounted to 39%. Moreover, the EC50 came out at 3070 nM in test [1] (setting [3]) and 3050 nM in test [2] (setting [5]). In addition, in test [2] (setting [4]), the cAMP % inhibition was found to be 24%.
On the same counts, the results for `O=C(Nc1cccc(-c2cccc(N3CCCC3)n2)c1)Oc1ccc(Cl)cc1` [Compound 13b, 4-Chlorophenyl (3-(6-(pyrrolidin-1-yl)pyridin-2-yl)phenyl)carbamate] are 24%, 5370 nM, above 10000 nM and 3.5%.
`O=C(Nc1cccc(-c2cccc(N3CCCC3)n2)c1)Nc1ccc(Cl)cc1C#CCCO` [Compound 22a, 1-(4-Chloro-2-(4-hydroxybut-1-yn-1-yl)phenyl)-3-(3-(6-(pyrrolidin-1-yl)pyridin-2-yl)phenyl)urea]: the β-arrestin % inhibition in test [1] (Table 1, CP55,940 as agonist) worked out at 83%. Besides, the EC50 in test [1] (setting [3]) was 4890 nM; in test [2] (setting [5]) it was 6490 nM. Moreover, in test [2] (setting [4]), the cAMP % inhibition is on record as 49%.
Consider `O=C(Nc1ccc(Cl)cc1)Nc1cccc(-c2cccc(N3CCCC3)c2)c1` [Compound 64], for which the β-arrestin % inhibition in test [1] (Table 1, CP55,940 as agonist) is given as 110%. Besides, the EC50 worked out at 27 nM in test [1] (setting [3]) and 679 nM in test [2] (setting [5]). The cAMP % inhibition in test [2] (setting [4]) came out at 84%.
The matching figures for `Cc1cc(Cl)ccc1NC(=O)Nc1cccc(-c2cccc(N3CCCC3)n2)c1` [Compound 10s, 1-(4-Chloro-2-methylphenyl)-3-(3-(6-(pyrrolidin-1-yl)pyridin-2-yl)phenyl)urea]: 109%, 209 nM, above 10000 nM and 18%.
On the same counts, the results for `O=C(Nc1cccc(-c2cccc(N3CCCC3)n2)c1)Nc1ccccc1CCCCOC1CCCCO1` (centres unmarked) [Compound 23c, 1-(3-(6-(Pyrrolidin-1-yl)pyridin-2-yl)phenyl)-3-(2-(4-((tetrahydro-2H-pyran-2-yl)oxy)butyl)phenyl)urea] are 69%, 6190 nM, above 10000 nM and 20%.
The matching figures for `O=C(Nc1cccc(-c2cccc(N3CCCC3)n2)c1)Nc1ccccc1CO` [Compound 17, 1-(2-(Hydroxymethyl)phenyl)-3-(3-(6-(pyrrolidin-1-yl)pyridin-2-yl)phenyl)urea]: 106%, 672 nM, 1140 nM and 33%.
Regarding `CCc1c(C(=O)NCCc2ccc(N3CCCCC3)cc2)[nH]c2ccc(N=[N+]=[N-])cc12` [GAT206], the EC50 in test [1] (setting [6]) came to 28 nM; in test [2] (setting [8]), 391 nM. The results for the Emax in test [1] (setting [7]) and in test [2] (setting [7]) were 106% and 89%, respectively.
With `Cc1cccc(NC(=O)Nc2cccc(-c3cccc(N4CCCC4)n3)c2)c1` [Compound 10o, 1-(3-(6-(Pyrrolidin-1-yl)pyridin-2-yl)phenyl)-3-(m-tolyl)urea], the β-arrestin % inhibition in test [1] (Table 1, CP55,940 as agonist) was 125%. Moreover, the EC50 in test [1] (setting [3]) is 734 nM; in test [2] (setting [5]), 483 nM. Also, in test [2] (setting [4]), the cAMP % inhibition was 65%.
For `O=C(Nc1ccc(I)cc1)Nc1cccc(-c2cccc(N3CCCC3)n2)c1` [GAT205], the figures for the EC50 in test [1] (setting [6]) and in test [2] (setting [8]) were 11.5 nM and 253 nM, respectively. Besides, the Emax in test [1] (setting [7]) was determined as 105%; in test [2] (setting [7]) it was 102%.
Turning to `O=C(Nc1cccc(-c2cccc(N3CCCC3)n2)c1)Nc1ccccc1C(F)(F)F` [Compound 10g, 1-(3-(6-(Pyrrolidin-1-yl)pyridin-2-yl)phenyl)-3-(2-(trifluoromethyl)phenyl)urea], the β-arrestin % inhibition in test [1] (Table 1, CP55,940 as agonist) amounted to 123%. The results for the EC50 in test [1] (setting [3]) and in test [2] (setting [5]) were 2090 nM and 1160 nM, respectively. In addition, the cAMP % inhibition in test [2] (setting [4]) was 119%.
The matching figures for `O=C(Nc1ccc(Cl)cc1)Nc1cccc(-c2cccc(N3CCOCC3)n2)c1` [Compound 67a, 1-(4-Chlorophenyl)-3-(3-(6-morpholinopyridin-2-yl)phenyl)urea]: 111%, 124 nM, 564 nM and 88%.
The matching figures for `COC(=O)c1ccccc1NC(=O)Nc1cccc(-c2cccc(N3CCCC3)n2)c1` [Compound 15, Methyl 2-(3-(3-(6-(pyrrolidin-1-yl)pyridin-2-yl)phenyl)ureido)benzoate]: 24%, 8520 nM, above 10000 nM and 0.6%.
The matching figures for `COc1cccc(NC(=O)Nc2cccc(-c3cccc(N4CCCC4)n3)c2)c1` [Compound 10i, 1-(3-Methoxyphenyl)-3-(3-(6-(pyrrolidin-1-yl)pyridin-2-yl)phenyl)urea]: 109%, 497 nM, 1790 nM and 92%.
Turning to `O=C(Nc1ccc(C(=O)c2ccccc2)cc1)Nc1cccc(-c2cccc(N3CCCC3)n2)c1` [GAT300], the EC50 in test [1] (setting [6]) was 28.4 nM; in test [2] (setting [8]) it was 169 nM. Also, the Emax worked out at 106% in test [1] (setting [7]) and 99.6% in test [2] (setting [7]).
As for `CCc1c(C(=O)NCCc2ccc(N3CCCCC3)cc2)[nH]c2ccc(N=C=S)cc12` [GAT100], the EC50 in test [1] (setting [6]) is 9.06 nM; in test [2] (setting [8]), 186 nM. Also, the Emax in test [1] worked out at 106%; in test [2], 89.4%.
Take `Cc1ccc(NC(=O)Nc2cccc(-c3cccc(N4CCCC4)n3)c2)cc1` [Compound 10n, 1-(3-(6-(Pyrrolidin-1-yl)pyridin-2-yl)phenyl)-3-(p-tolyl)urea]: the β-arrestin % inhibition in test [1] is 127%. The EC50 in test [1] (β-arrestin EC50 nM) came out at 119 nM; in test [2] (cAMP EC50 nM), 764 nM. The cAMP % inhibition in test [2] is 122%.
As for `COc1ccc(NC(=O)Nc2cccc(-c3cccc(N4CCCC4)n3)c2)cc1` [Compound 10h, 1-(4-Methoxyphenyl)-3-(3-(6-(pyrrolidin-1-yl)pyridin-2-yl)phenyl)urea], the β-arrestin % inhibition in test [1] (Table 1, CP55,940 as agonist) was determined as 98%. The EC50 in test [1] (setting [3]) was determined as 99 nM; in test [2] (setting [5]) it was 1230 nM. The cAMP % inhibition in test [2] (setting [4]) is on record as 97%.
As to `O=C(Nc1ccc(Oc2ccccc2)cc1)Nc1cccc(-c2cccc(N3CCCC3)n2)c1` [Compound 10k, 1-(4-Phenoxyphenyl)-3-(3-(6-(pyrrolidin-1-yl)pyridin-2-yl)phenyl)urea], the β-arrestin % inhibition in test [1] (Table 1, CP55,940 as agonist) is 123%. In addition, the results for the EC50 in test [1] (setting [3]) and in test [2] (setting [5]) were 115 nM and 750 nM, respectively. The cAMP % inhibition in test [2] (setting [4]) is listed as 91%.
